Source: paper PMC6364417, “Kinase inhibitor library screening identifies synergistic drug combinations effective in sensitive and resistant melanoma cells” (Journal of Experimental & Clinical Cancer Research : CR, 2019)

Columns and labels:
Assay in all cases: Kinase inhibitor library screening, PrestoBlue cell viability, 1 or 10 μM, 72 h
[1] = tested on: 501Mel-GP cells (Dabrafenib-resistant); conditions: for cell viability (kinase inhibitor library screening): 501Mel GP, in %
Procedure: (§1) After 72 h of treatment, cell viability was assessed using the PrestoBlue Cell Viability Reagent (ThermoFisher Scientific). Measurements were performed with the CLARIOstar Monochromator microplate reader (BMG Labtech).
(§2) Kinase inhibitor library screening. […] Each cell line was treated in its sensitive form (parental), and also as 2 resistant derivatives, which were made resistant to either Vemurafenib (XP) or Dabrafenib (GP). Drugs were added at 2 different concentrations, 1 and 10 μM, for 72 h and cell viability was assessed using the PrestoBlue Cell Viability assay. Results are depicted as % viability compared to untreated cells. Each cell line was analyzed at least in duplicate. […] (XLSX 95 kb)

[2] = tested on: IGR37 cells (parental); conditions: for cell viability (kinase inhibitor library screening): IGR37 Parental, in %
Procedure: as §1, §2

[3] = tested on: 501Mel cells (parental); conditions: for cell viability (kinase inhibitor library screening): 501Mel Parental, in %
Procedure: as §1, §2

[4] = tested on: 501Mel-XP cells (Vemurafenib-resistant); conditions: for cell viability (kinase inhibitor library screening): 501Mel XP, in %
Procedure: as §1, §2

[5] = tested on: A375 cells (parental); conditions: for cell viability (kinase inhibitor library screening): A375 Parental, in %
Procedure: as §1, §2

[6] = tested on: A375-GP cells (Dabrafenib-resistant); conditions: for cell viability (kinase inhibitor library screening): A375 GP, in %
Procedure: as §1, §2

[7] = tested on: IGR37-XP cells (Vemurafenib-resistant); conditions: for cell viability (kinase inhibitor library screening): IGR37 XP, in %
Procedure: as §1, §2

[8] = tested on: IGR37-GP cells (Dabrafenib-resistant); conditions: for cell viability (kinase inhibitor library screening): IGR37 GP, in %
Procedure: as §1, §2

[9] = tested on: A375-XP cells (Vemurafenib-resistant); conditions: for cell viability (kinase inhibitor library screening): A375 XP, in %
Procedure: as §1, §2

Compound	cell viability (kinase inhibitor library screening) ([1]; 1μΜ)	cell viability (kinase inhibitor library screening) ([1]; 10μΜ)	cell viability (kinase inhibitor library screening) ([2]; 10μΜ)	cell viability (kinase inhibitor library screening) ([3]; 1μΜ)	cell viability (kinase inhibitor library screening) ([3]; 10μΜ)	cell viability (kinase inhibitor library screening) ([4]; 1μΜ)	cell viability (kinase inhibitor library screening) ([4]; 10μΜ)	cell viability (kinase inhibitor library screening) ([5]; 1μΜ)	cell viability (kinase inhibitor library screening) ([5]; 10μΜ)	cell viability (kinase inhibitor library screening) ([6]; 1μΜ)	cell viability (kinase inhibitor library screening) ([6]; 10μΜ)	cell viability (kinase inhibitor library screening) ([7]; 1μΜ)	cell viability (kinase inhibitor library screening) ([7]; 10μΜ)	cell viability (kinase inhibitor library screening) ([8]; 10μΜ)	cell viability (kinase inhibitor library screening) ([9]; 1μΜ)	cell viability (kinase inhibitor library screening) ([9]; 10μΜ)	also measured
CCS(=O)(=O)N1CC(CC#N)(n2cc(-c3ncnc4[nH]ccc34)cn2)C1 [Baricitinib (LY3009104)]																	viability at 1 µM ([1]; Homo sapiens, 72 h, read-out: cell viability, 501Mel GP, 1μΜ): 104%; viability at 10 µM ([1]; Homo sapiens, 72 h, read-out: cell viability, 501Mel GP, 10μΜ): 83.8%; viability at 1 µM ([2]; Homo sapiens, IGR-37, 72 h, read-out: cell viability, IGR37 Parental, 1μΜ): 99.6%; viability at 10 µM ([2]; Homo sapiens, IGR-37, 72 h, read-out: cell viability, IGR37 Parental, 10μΜ): 98.8%; viability at 1 µM ([3]; Homo sapiens, 72 h, read-out: cell viability, 501Mel Parental, 1μΜ): 95%; viability at 10 µM ([3]; Homo sapiens, 72 h, read-out: cell viability, 501Mel Parental, 10μΜ): 88.9%; viability at 1 µM ([4]; Homo sapiens, 72 h, read-out: cell viability, 501Mel XP, 1μΜ): 98.5%; viability at 10 µM ([4]; Homo sapiens, 72 h, read-out: cell viability, 501Mel XP, 10μΜ): 74.5%; viability at 1 µM ([5]; Homo sapiens, A-375, 72 h, read-out: cell viability, A375 Parental, 1μΜ): 103%; viability at 10 µM ([5]; Homo sapiens, A-375, 72 h, read-out: cell viability, A375 Parental, 10μΜ): 94.8%; viability at 1 µM ([6]; Homo sapiens, A-375, 72 h, read-out: cell viability, A375 GP, 1μΜ): 106%; viability at 10 µM ([6]; Homo sapiens, A-375, 72 h, read-out: cell viability, A375 GP, 10μΜ): 88.4%; viability at 1 µM ([7]; Homo sapiens, IGR-37, 72 h, read-out: cell viability, IGR37 XP, 1μΜ): 96.5%; viability at 10 µM ([7]; Homo sapiens, IGR-37, 72 h, read-out: cell viability, IGR37 XP, 10μΜ): 75.3%; viability at 1 µM ([8]; Homo sapiens, IGR-37, 72 h, read-out: cell viability, IGR37 GP, 1μΜ): 92%; viability at 10 µM ([8]; Homo sapiens, IGR-37, 72 h, read-out: cell viability, IGR37 GP, 10μΜ): 91.5%; viability at 1 µM ([9]; Homo sapiens, A-375, 72 h, read-out: cell viability, A375 XP, 1μΜ): 105%; viability at 10 µM ([9]; Homo sapiens, A-375, 72 h, read-out: cell viability, A375 XP, 10μΜ): 102%
COc1cc(Nc2c(C#N)cnc3cc(OCCCN4CCN(C)CC4)c(OC)cc23)c(Cl)cc1Cl [Bosutinib (SKI-606)]	91.9	-0.266	1.8	98.4	0.645	103.1	-0.2	80.1	39.3	85.6	32.7	98.8	4.2	20.7	83.7	30.5	cell viability (kinase inhibitor library screening) ([2]; 1μΜ): 97.3; cell viability (kinase inhibitor library screening) ([8]; 1μΜ): 95.0
Cc1cc2c(F)c(Oc3ncnn4cc(OC[C@@H](C)O)c(C)c34)ccc2[nH]1 [Brivanib (BMS-540215)]	106.3	89.6	99.8	104.3	93.4	100.3	80.7	105.2	84.3	103.4	79.9	107.9	73.1	95.2	104.1	89.7	
